Assay results from ChEMBL document CHEMBL5518204, “Discovery and Proof of Concept of Potent Dual Polθ/PARP Inhibitors for Efficient Treatment of Homologous Recombination-Deficient Tumors” (J Med Chem, 2024).
The source made the active and inactive calls. The calls are words filed in the database; no cut-off is given here.

Key:
[1] = Metabolic stability in human liver microsome assessed as intrinsic clearance; type: ADME; conditions: liver microsomes, read-out: CLH
DNA polymerase theta = DNA polymerase theta (Homo sapiens, UniProt O75417); test: Inhibition of DNA polymerase theta mediated TMEJ repair activity in HEK293 cells incubated for 24 hrs by Nano-glo luciferase assay; type: cell-based
Chain of DNA polymerase theta (O75417 whole entry): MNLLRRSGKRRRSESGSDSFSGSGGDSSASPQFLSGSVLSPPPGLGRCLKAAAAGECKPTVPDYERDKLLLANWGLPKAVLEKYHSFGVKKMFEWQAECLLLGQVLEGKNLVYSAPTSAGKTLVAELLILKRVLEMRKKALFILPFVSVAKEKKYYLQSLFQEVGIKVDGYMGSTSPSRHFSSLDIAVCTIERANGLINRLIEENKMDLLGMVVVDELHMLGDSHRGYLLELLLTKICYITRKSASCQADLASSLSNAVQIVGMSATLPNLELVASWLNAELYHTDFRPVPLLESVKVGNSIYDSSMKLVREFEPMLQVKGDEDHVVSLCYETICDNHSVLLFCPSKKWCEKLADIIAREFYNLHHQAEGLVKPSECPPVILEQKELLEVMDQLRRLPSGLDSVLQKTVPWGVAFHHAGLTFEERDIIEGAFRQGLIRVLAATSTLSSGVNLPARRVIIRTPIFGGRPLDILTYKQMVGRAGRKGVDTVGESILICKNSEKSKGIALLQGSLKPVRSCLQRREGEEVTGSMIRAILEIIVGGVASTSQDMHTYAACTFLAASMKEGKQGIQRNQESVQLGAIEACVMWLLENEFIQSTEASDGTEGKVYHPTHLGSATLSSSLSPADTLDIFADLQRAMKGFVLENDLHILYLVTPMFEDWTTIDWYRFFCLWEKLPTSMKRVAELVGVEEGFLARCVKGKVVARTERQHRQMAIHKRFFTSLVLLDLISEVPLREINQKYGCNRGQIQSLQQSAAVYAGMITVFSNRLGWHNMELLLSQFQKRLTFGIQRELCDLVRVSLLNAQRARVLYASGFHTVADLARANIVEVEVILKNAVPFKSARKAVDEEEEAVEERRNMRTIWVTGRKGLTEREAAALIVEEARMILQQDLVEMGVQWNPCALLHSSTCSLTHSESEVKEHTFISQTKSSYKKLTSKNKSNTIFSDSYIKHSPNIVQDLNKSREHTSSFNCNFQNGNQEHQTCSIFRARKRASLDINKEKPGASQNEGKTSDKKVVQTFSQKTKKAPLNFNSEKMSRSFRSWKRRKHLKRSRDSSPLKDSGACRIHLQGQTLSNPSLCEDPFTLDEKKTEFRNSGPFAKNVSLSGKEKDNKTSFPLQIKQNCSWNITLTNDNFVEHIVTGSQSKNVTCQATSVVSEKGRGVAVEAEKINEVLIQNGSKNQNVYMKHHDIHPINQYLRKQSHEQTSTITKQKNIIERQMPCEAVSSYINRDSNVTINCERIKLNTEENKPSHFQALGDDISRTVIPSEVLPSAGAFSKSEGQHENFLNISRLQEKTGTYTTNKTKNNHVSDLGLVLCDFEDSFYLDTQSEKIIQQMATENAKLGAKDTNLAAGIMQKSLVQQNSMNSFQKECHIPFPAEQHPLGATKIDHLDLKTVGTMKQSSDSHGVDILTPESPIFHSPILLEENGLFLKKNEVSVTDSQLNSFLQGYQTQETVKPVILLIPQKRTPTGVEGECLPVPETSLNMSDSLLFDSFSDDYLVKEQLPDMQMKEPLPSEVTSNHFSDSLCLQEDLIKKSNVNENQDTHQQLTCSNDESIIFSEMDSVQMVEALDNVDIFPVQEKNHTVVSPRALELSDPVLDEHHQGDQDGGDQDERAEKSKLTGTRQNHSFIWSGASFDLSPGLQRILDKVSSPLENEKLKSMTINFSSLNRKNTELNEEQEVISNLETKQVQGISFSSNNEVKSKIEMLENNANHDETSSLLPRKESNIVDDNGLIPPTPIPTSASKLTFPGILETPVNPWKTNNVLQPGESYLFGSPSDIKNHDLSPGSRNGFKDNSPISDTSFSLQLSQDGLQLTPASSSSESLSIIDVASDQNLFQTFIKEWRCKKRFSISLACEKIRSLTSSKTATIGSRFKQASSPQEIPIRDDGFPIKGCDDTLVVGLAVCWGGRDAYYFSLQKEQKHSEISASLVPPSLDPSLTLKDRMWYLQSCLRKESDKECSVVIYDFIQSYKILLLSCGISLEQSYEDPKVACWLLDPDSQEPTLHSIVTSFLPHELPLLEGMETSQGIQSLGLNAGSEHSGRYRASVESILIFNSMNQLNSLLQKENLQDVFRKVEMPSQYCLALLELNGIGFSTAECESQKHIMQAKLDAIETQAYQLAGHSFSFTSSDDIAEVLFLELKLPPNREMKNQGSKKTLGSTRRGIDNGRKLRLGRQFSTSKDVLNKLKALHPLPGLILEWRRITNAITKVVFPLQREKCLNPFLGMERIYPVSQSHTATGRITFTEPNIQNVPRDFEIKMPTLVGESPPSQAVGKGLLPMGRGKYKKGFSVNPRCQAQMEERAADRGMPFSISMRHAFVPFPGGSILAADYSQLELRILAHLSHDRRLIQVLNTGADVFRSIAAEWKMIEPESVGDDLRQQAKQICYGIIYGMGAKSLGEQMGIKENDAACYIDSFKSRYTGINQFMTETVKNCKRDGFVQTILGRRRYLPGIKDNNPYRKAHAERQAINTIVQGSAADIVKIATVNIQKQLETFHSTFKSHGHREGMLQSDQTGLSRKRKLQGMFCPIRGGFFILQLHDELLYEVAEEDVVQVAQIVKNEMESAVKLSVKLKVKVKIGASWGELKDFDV

[2] = Toxicity in BALB/c mouse xenografted with human MDA-MB-231 cells assessed as kidney damage at 20 to 40 mg/kg, ip administered for 21 days by H and E staining based analysis; type: organism-based; conditions: in vivo, 504 h, dose 20-40 mg/kg, time 21 day
[3] = Toxicity in BALB/c mouse xenografted with human MDA-MB-231 cells assessed as heart damage at 20 to 40 mg/kg, ip administered for 21 days by H and E staining based analysis; type: organism-based; conditions: in vivo, 504 h, dose 20-40 mg/kg, time 21 day
[4] = Toxicity in BALB/c mouse xenografted with human MDA-MB-231 cells assessed as increase in body weight at 20 to 40 mg/kg, ip administered for 21 days; type: organism-based; conditions: in vivo, 504 h, dose 20-40 mg/kg, time 21 day
[5] = Metabolic stability in mouse liver microsome assessed as intrinsic clearance; type: ADME; conditions: liver microsomes, read-out: CLH
[6] = target: T1, Protein mono-ADP-ribosyltransferase PARP8 (Homo sapiens, UniProt Q8N3A8); test: Inhibition of PARP8 (unknown origin)
T1 sequence (Q8N3A8 whole entry): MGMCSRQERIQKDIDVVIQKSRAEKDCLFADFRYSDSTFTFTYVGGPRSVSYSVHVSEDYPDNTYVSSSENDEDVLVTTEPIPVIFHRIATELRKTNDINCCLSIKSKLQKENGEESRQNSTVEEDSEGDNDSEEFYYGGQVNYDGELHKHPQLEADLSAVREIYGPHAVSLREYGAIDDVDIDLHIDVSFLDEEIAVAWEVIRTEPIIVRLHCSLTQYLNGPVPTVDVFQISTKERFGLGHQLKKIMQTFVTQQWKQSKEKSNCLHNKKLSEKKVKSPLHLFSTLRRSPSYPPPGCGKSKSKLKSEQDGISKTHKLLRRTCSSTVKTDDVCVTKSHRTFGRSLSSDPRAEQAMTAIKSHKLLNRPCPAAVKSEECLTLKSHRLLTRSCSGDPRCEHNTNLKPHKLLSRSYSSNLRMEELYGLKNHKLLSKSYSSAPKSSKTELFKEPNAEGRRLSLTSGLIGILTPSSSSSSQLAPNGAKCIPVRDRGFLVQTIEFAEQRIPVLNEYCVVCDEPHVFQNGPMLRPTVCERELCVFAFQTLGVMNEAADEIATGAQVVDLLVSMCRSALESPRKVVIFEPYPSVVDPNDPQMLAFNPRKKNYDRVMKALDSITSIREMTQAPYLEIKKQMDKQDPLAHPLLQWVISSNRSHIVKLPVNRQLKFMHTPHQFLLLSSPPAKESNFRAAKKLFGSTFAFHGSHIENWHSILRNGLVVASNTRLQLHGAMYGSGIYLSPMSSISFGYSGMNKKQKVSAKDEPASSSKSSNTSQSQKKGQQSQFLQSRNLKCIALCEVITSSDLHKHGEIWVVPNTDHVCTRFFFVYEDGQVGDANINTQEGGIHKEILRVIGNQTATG

[7] = Toxicity in BALB/c mouse xenografted with human MDA-MB-231 cells assessed as liver damage at 20 to 40 mg/kg, ip administered for 21 days by H and E staining based analysis; type: organism-based; conditions: in vivo, 504 h, dose 20-40 mg/kg, time 21 day
MDA-MB-436 = test: Antiproliferative activity against human MDA-MB-436 cells transfected with SiRNA assessed as inhibition of cell proliferation incubated for 5 days by MTT assay; type: functional, cell-based; conditions: time 5.0 day
MDA-MB-231 [8] = test: Induction of cell cycle arrest in human MDA-MB-231 cells assessed as accumulation of cells at G2/M phase at 2 uM incubated for 3 days by PI staining based flow cytometric analysis; type: functional; conditions: time 3.0 day
MDA-MB-231 [9] = test: Induction of apoptosis in human MDA-MB-231 cells at 2 uM incubated for 3 days by Annexin V-APC/7-AAD based flow cytometry analysis; type: functional; conditions: time 3 day

- CLint scaled [1]: 681 mL/min/kg
- IC50 (DNA polymerase theta): 0.088 µM
- CLint scaled [5]: 1070 mL/min/kg
- IC50 [6]: 2.93 µM
Compound: COc1ccc(Cl)cc1-c1cc(C)ncc1C(=O)Nc1nnc(OCC2CCN(C(=O)c3cc(Cc4n[nH]c(=O)c5ccccc45)ccc3F)CC2)s1
- Activity [2]: Non-Toxic
- Activity [3]: Non-Toxic
- Activity [4]: Non-Toxic
- Activity [7]: Non-Toxic
- Activity (MDA-MB-436): Active
- Activity (MDA-MB-231 [8]): Active
- Activity (MDA-MB-231 [9]): 26.7%
